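Five compound concentrations were applied to cells in 96-well plates for 48 hours; endpoints were derived by simple linear interpolation of the resulting dose-response curve. Definition used: TGI = concentration required for complete inhibition of growth.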
Key:
Test in all cases: NCI tumour cell line growth inhibition, 48 h
786-0 renal = tested on: 786-0 renal
A549 NSCLC = tested on: A549 NSCLC
ACHN renal = tested on: ACHN renal
BT-549 breast = tested on: BT-549 breast
CAKI-1 renal = tested on: CAKI-1 renal
CCRF-CEM leukemia = tested on: CCRF-CEM leukemia
COLO 205 colon = tested on: COLO 205 colon
DU-145 prostate = tested on: DU-145 prostate
EKVX NSCLC = tested on: EKVX NSCLC
HCT-116 colon = tested on: HCT-116 colon
HCT-15 colon = tested on: HCT-15 colon
HL-60(TB) leukemia = tested on: HL-60(TB) leukemia
HOP-62 NSCLC = tested on: HOP-62 NSCLC
HS 578T breast = tested on: HS 578T breast
HT29 colon = tested on: HT29 colon
IGROV1 ovarian = tested on: IGROV1 ovarian
K-562 leukemia = tested on: K-562 leukemia
KM12 colon = tested on: KM12 colon
LOX IMVI melanoma = tested on: LOX IMVI melanoma
M14 melanoma = tested on: M14 melanoma
MCF7 breast = tested on: MCF7 breast
MDA-MB-231 breast = tested on: MDA-MB-231 breast
MDA-MB-435 = tested on: MDA-MB-435
MDA-N = tested on: MDA-N
MOLT-4 leukemia = tested on: MOLT-4 leukemia
NCI-H226 lung = tested on: NCI-H226 lung
NCI-H460 lung = tested on: NCI-H460 lung
NCI-H522 lung = tested on: NCI-H522 lung
NCI/ADR-RES ovarian = tested on: NCI/ADR-RES ovarian
OVCAR-3 ovarian = tested on: OVCAR-3 ovarian
OVCAR-4 ovarian = tested on: OVCAR-4 ovarian
OVCAR-5 ovarian = tested on: OVCAR-5 ovarian
OVCAR-8 ovarian = tested on: OVCAR-8 ovarian
PC-3 prostate = tested on: PC-3 prostate
RPMI-8226 leukemia = tested on: RPMI-8226 leukemia
RXF 393 renal = tested on: RXF 393 renal
SF-268 CNS = tested on: SF-268 CNS
SF-295 CNS = tested on: SF-295 CNS
SF-539 CNS = tested on: SF-539 CNS
SK-MEL-2 melanoma = tested on: SK-MEL-2 melanoma
SK-MEL-28 melanoma = tested on: SK-MEL-28 melanoma
SK-MEL-5 melanoma = tested on: SK-MEL-5 melanoma
SK-OV-3 ovarian = tested on: SK-OV-3 ovarian
SN12C renal = tested on: SN12C renal
SNB-19 CNS = tested on: SNB-19 CNS
SNB-75 CNS = tested on: SNB-75 CNS
SR leukemia = tested on: SR leukemia
SW-620 colon = tested on: SW-620 colon
T-47D breast = tested on: T-47D breast
TK-10 renal = tested on: TK-10 renal
U251 CNS = tested on: U251 CNS
UACC-257 melanoma = tested on: UACC-257 melanoma
UACC-62 melanoma = tested on: UACC-62 melanoma
UO-31 renal = tested on: UO-31 renal

Cc1ccc(S(=O)(=O)N(CCN2C(=O)c3ccccc3C2=O)c2cc3c4c(c2)Oc2cc(N(CCN5C(=O)c6ccccc6C5=O)S(=O)(=O)c5ccc(C)cc5)cc5c2C4(C)c2c(cc(N(CCN4C(=O)c6ccccc6C4=O)S(=O)(=O)c4ccc(C)cc4)cc2O5)O3)cc1
TGI (786-0 renal): > 100 µM | TGI (A549 NSCLC): > 100 µM | TGI (ACHN renal): > 100 µM | TGI (BT-549 breast): > 100 µM | TGI (CAKI-1 renal): > 100 µM | TGI (CCRF-CEM leukemia): > 100 µM | TGI (COLO 205 colon): > 100 µM | TGI (DU-145 prostate): > 100 µM | TGI (EKVX NSCLC): > 100 µM | TGI (HCT-116 colon): > 100 µM | TGI (HCT-15 colon): > 100 µM | TGI (HL-60(TB) leukemia): > 100 µM | TGI (HOP-62 NSCLC): > 100 µM | TGI (HS 578T breast): > 100 µM | TGI (HT29 colon): > 100 µM | TGI (IGROV1 ovarian): > 100 µM | TGI (K-562 leukemia): > 100 µM | TGI (KM12 colon): > 100 µM | TGI (LOX IMVI melanoma): > 100 µM | TGI (M14 melanoma): > 100 µM | TGI (MCF7 breast): > 100 µM | TGI (MDA-MB-231 breast): 45.8 µM | TGI (MDA-MB-435): > 100 µM | TGI (MDA-N): > 100 µM | TGI (MOLT-4 leukemia): > 100 µM | TGI (NCI-H226 lung): > 100 µM | TGI (NCI-H460 lung): > 100 µM | TGI (NCI-H522 lung): > 100 µM | TGI (NCI/ADR-RES ovarian): > 100 µM | TGI (OVCAR-3 ovarian): > 100 µM | TGI (OVCAR-4 ovarian): > 100 µM | TGI (OVCAR-5 ovarian): > 100 µM | TGI (OVCAR-8 ovarian): > 100 µM | TGI (PC-3 prostate): > 100 µM | TGI (RPMI-8226 leukemia): > 100 µM | TGI (RXF 393 renal): > 100 µM | TGI (SF-268 CNS): > 100 µM | TGI (SF-295 CNS): > 100 µM | TGI (SF-539 CNS): > 100 µM | TGI (SK-MEL-2 melanoma): > 100 µM | TGI (SK-MEL-28 melanoma): > 100 µM | TGI (SK-MEL-5 melanoma): > 100 µM | TGI (SK-OV-3 ovarian): > 100 µM | TGI (SN12C renal): > 100 µM | TGI (SNB-19 CNS): > 100 µM | TGI (SNB-75 CNS): > 100 µM | TGI (SR leukemia): > 100 µM | TGI (SW-620 colon): > 100 µM | TGI (T-47D breast): > 100 µM | TGI (TK-10 renal): > 100 µM | TGI (U251 CNS): > 100 µM | TGI (UACC-257 melanoma): > 100 µM | TGI (UACC-62 melanoma): > 100 µM | TGI (UO-31 renal): > 100 µM

From PubChem BioAssay (NCI)
